The values that follow come from patent publication US8791132B2, “Compounds and methods for treatment of hypertension” (Medivation Technologies, Inc., priority 2011, dated 2014).

In assay [1] the target is T1, human recombinant adrenergic α2B receptor (Homo sapiens, UniProt P18089).
T1 construct: expressed in transfected cells; host or cells: CHO-K1
T1 sequence (P18089 1-450): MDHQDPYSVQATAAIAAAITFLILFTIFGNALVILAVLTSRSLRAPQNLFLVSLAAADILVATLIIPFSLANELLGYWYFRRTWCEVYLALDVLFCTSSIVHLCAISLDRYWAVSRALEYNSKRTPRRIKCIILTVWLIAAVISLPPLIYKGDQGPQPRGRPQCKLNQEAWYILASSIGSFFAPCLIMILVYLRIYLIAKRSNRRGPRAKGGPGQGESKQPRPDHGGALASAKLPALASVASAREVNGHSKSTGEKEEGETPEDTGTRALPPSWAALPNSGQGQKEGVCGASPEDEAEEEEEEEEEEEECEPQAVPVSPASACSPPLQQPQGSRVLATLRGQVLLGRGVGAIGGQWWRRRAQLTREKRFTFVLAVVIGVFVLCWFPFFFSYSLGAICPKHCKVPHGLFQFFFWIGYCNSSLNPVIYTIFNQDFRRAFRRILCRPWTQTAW
Nature of the assay: Radioligand binding, adrenergic α2B ([3H]Rauwolscine). In outline:
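Values are percent inhibition of specific radioligand binding. The receptor, expressed in CHO-K1 cells, was exposed to 2.5 nM [3H]Rauwolscine at 25° C for 60 min, with 10 μM Prazosin marking non-specific binding.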

In assay [2] the target is T2, human recombinant adrenergic α2A receptor (Homo sapiens, UniProt P08913).
T2 construct: expressed in transfected cells; host or cells: insect Sf9 cells
T2 sequence (P08913 1-465): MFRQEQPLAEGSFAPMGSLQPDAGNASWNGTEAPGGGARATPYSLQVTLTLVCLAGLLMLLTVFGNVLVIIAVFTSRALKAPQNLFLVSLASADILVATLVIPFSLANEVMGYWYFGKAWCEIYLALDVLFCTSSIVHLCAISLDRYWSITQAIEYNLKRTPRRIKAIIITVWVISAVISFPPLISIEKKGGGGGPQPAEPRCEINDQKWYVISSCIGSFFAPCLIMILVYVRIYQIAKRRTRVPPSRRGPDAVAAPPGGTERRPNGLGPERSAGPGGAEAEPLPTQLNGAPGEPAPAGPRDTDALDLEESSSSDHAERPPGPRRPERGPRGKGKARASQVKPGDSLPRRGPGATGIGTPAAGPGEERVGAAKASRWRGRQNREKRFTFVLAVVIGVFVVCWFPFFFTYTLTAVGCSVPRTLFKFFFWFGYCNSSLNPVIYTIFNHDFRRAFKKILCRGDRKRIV
Nature of the assay: Radioligand binding, adrenergic α2A ([3H]MK-912). In outline: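 In 50 mM Tris-HCl (pH 7.4) containing 12.5 mM MgCl2 and 2 mM EDTA, Sf9-expressed receptor was exposed to test compound plus 1 nM [3H]MK-912 at 25 °C for 60 min. Specific binding, corrected using 10 μM WB-4101, was quantified by filtration and counting and expressed as percent inhibition.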

Assay [3] deals with T3, rat adrenergic α1B receptor (Rattus norvegicus, UniProt P15823).
T3 construct: rat adrenergic α1B receptor obtained from Wistar Rat liver; from tissue; host or cells: Wistar rat liver
T3 sequence (P15823 1-515): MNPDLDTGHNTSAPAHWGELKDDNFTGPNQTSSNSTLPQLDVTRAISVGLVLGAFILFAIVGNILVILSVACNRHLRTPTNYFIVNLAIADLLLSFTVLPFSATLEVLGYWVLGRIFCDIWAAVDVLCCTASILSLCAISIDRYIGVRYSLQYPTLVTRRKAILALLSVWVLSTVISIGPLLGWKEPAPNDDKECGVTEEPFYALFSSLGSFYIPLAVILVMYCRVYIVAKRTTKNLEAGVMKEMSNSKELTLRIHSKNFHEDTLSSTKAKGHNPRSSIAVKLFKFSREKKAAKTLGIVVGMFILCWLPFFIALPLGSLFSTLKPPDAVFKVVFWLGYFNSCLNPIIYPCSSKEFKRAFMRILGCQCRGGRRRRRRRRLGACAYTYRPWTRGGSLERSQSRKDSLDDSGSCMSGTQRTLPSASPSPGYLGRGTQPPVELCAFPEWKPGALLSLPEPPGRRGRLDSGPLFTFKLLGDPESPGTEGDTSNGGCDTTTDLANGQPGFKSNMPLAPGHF
Put plainly: Radioligand binding, adrenergic α1B ([3H]Prazosin). A digest of the protocol: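 Incubation ran 60 min at 25 °C in Tris-HCl buffer (50 mM, pH 7.4, 0.5 mM EDTA) with Wistar rat liver α1B receptor. 10 μM phentolamine set non-specific binding.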

Assay [4] deals with T4, human recombinant adrenergic α1D receptor (Homo sapiens, UniProt P25100).
T4 construct: expressed in transfected cells; host or cells: HEK-293
T4 sequence (P25100 1-572): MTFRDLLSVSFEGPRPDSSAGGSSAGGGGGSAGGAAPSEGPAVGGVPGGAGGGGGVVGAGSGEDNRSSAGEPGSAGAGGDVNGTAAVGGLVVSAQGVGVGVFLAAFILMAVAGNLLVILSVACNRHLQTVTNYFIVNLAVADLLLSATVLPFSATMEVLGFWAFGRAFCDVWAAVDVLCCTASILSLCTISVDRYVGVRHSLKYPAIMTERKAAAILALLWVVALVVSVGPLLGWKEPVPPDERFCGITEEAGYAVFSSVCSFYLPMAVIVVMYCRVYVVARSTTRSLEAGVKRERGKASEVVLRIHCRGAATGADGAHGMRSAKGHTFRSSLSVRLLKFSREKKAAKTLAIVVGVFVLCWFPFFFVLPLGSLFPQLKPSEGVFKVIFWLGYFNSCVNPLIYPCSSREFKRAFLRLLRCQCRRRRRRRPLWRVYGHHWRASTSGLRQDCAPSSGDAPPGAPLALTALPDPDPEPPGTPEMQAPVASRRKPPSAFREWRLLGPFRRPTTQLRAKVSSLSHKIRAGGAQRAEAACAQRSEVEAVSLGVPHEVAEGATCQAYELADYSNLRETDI
Put plainly: Radioligand binding, adrenergic α1D ([3H]Prazosin). As to the method: Compounds were incubated with 0.6 nM [3H]Prazosin for 60 min at 25° C. Non-specific binding was estimated in the presence of 10 μM phentolamine. Receptor proteins were filtered and washed, the filters were then counted to determine [3H]Prazosin specifically bound. […] Biochemical assay results are presented as the percent inhibition of specific binding in Table B1.

The mark [5] stands for this setting: 0.1 μM compound, read-out: Percentage inhibition of ligand binding, Adrenergic α2B.
Where [6] appears, read: 0.1 μM compound, read-out: Percentage inhibition of ligand binding, Adrenergic α2A.
[7] abbreviates: 0.1 μM compound, read-out: Percentage inhibition of ligand binding, Adrenergic α1B.
[8] abbreviates: 0.1 μM compound, read-out: Percentage inhibition of ligand binding, Adrenergic α1D.
Where [9] appears, read: read-out: Percentage inhibition of ligand binding, Adrenergic α2B (0.1 μM), compound at 0.1 μM, [3H]Rauwolscine, repeat datapoints each shown.
The mark [10] stands for this setting: read-out: Percentage inhibition of ligand binding, Adrenergic α2A (0.1 μM), compound at 0.1 μM, [3H]MK-912, repeat datapoints each shown.
The mark [11] stands for this setting: read-out: Percentage inhibition of ligand binding, Adrenergic α1B (0.1 μM), compound at 0.1 μM, [3H]Prazosin, repeat datapoints each shown.
[12] abbreviates: read-out: Percentage inhibition of ligand binding, Adrenergic α1D (0.1 μM), compound at 0.1 μM, [3H]Prazosin, repeat datapoints each shown.

Several values for one entry are separate records, joined by “and”; a condition that tells them apart may be missing. Equal values may be shown once. Read-outs that look alike come from different tables or passages of the source.

As to `Cc1ccc2c(c1)c1c(n2/C=C/c2cnc3ccccc3c2)CCN(C)C1` [compound 323], the inhibition at 0.1 µM came to 95% in assay [1] (setting [5]), 92% in assay [2] (setting [6]), 85% in assay [3] (setting [7]) and 69% in assay [4] (setting [8]).

Consider `Cc1ccc(C(C)(O)Cn2c3c(c4cc(Cl)ccc42)CN(C)CC3)cc1` (stereo not shown) [II-56], for which the inhibition at 0.1 µM in assay [1] (setting [5]) is 78%; in assay [2] (setting [6]), 31%; in assay [3] (setting [7]) it was 54%; in assay [4] (setting [8]), 11%.

Consider `CCC1c2c(c3cc(Cl)ccc3n2CC(C)(O)c2ccc(F)cc2)CCN1C` (stereo not shown) [II-161], for which the inhibition at 0.1 µM in assay [1] (setting [9]) was 13%; in assay [2] (setting [10]), 7%; in assay [3] (setting [11]) it was 7%; in assay [4] (setting [12]), 2%.

For `Cc1ccc2c(c1)c1c(n2CCc2ccc(Cl)cc2)CCN(C)C1` [compound 184, 5-(4-Chlorophenethyl)-2,3,4,5-tetrahydro-2,8-dimethyl-1H-pyrido[4,3-b]indole], the inhibition at 0.03 µM in assay [1] (read-out: Percentage inhibition of ligand binding, Adrenergic α2B (0.03 μM), compound at 0.03 μM, [3H]Rauwolscine, repeat datapoints each shown) stood at 95%; in assay [3] (read-out: Percentage inhibition of ligand binding, Adrenergic α1B (0.03 μM), compound at 0.03 μM, [3H]Prazosin, repeat datapoints each shown), 60%; in assay [4] (read-out: Percentage inhibition of ligand binding, Adrenergic α1D (0.03 μM), compound at 0.03 μM, [3H]Prazosin, repeat datapoints each shown) it was 24%. Further, the Ki in assay [2] stood at 184 nM. In addition, the inhibition at 0.1 µM in assay [2] (setting [10]) was determined as 93%.

`Cc1ccc2c(c1)c1c(n2C=C(c2ccccc2)c2ccccc2)CCN(C)C1` [compound 267]: the inhibition at 0.1 µM is 85% in assay [1] (setting [5]), 63% in assay [2] (setting [6]), 7% in assay [3] (setting [7]) and 26% in assay [4] (setting [8]).

As to `C/C(=C\n1c2c(c3cc(Cl)ccc31)C1CCC(C2)N1C)c1cccnc1` (stereo not shown) [compound 97], the inhibition at 0.1 µM is 88% in assay [1] (setting [9]), -12% in assay [2] (setting [10]), 3% in assay [3] (setting [11]) and -7% in assay [4] (setting [12]).

Take `C/C(=C\n1c2c(c3cc(C)ccc31)CN(C)CC2)c1ccc(F)nc1` [II-96]: the inhibition at 0.1 µM is 95% in assay [1] (setting [5]), 49% in assay [2] (setting [6]), 39% in assay [3] (setting [7]) and 31% in assay [4] (setting [8]).

Take `CCc1ccc(CCn2c3c(c4cc(C)ccc42)CN(C)CC3)cn1` [compound 89]: the inhibition at 0.03 µM in assay [1] (compound at 0.03 μM, [3H]Rauwolscine, repeat assays, each datapoint shown, read-out: Percentage inhibition of ligand binding, Adrenergic α2B) worked out at 25%. Moreover, the “Percentage inhibition of ligand binding, Adrenergic α2B” value in assay [1] (compound at 0.1 μM, [3H]Rauwolscine, repeat assays, each datapoint shown, 0.1 µM) was 57% and 79%. Also, the Ki in assay [1] (read-out: Ki α2B) worked out at 32 nM. Also, the inhibition at 0.1 µM in assay [2] (compound at 0.1 μM, [3H]MK-912, repeat assays, each datapoint shown, read-out: Percentage inhibition of ligand binding, Adrenergic α2A) was 23%; in assay [3] (compound at 0.1 μM, [3H]Prazosin, repeat assays, each datapoint shown, read-out: Percentage inhibition of ligand binding, Adrenergic α1B), 79%; in assay [4] (compound at 0.1 μM, [3H]Prazosin, repeat assays, each datapoint shown, read-out: Percentage inhibition of ligand binding, Adrenergic α1D), 68%.

Take `Cc1ccc2c(c1)c1c(n2C2=C(c3sccc3C)CCC2)CCN(C)C1` [compound 302, 2,8-dimethyl-5-(2-(3-methylthiophen-2-yl)cyclopent-1-enyl)-2,3,4,5-tetrahydro-1H-pyrido[4,3-b]indole]: the inhibition at 0.1 µM amounted to 35% in assay [1] (setting [5]), 81% in assay [2] (setting [6]), 23% in assay [3] (setting [7]) and 17% in assay [4] (setting [8]).

Regarding `C/C(=C\n1c2c(c3cc(C)ccc31)CN(C)CC2)c1ccnn1C` [compound 108], the inhibition at 0.1 µM in assay [1] (setting [9]) came to 88%; in assay [2] (setting [10]) it was 20%; in assay [3] (setting [11]) it was 42%; in assay [4] (setting [12]), 21%.

Turning to `C/C(=C/n1c2c(c3cc(C)ccc31)CN(C)CC2)c1ccc(C)s1` [compound 277], the inhibition at 0.1 µM in assay [1] (setting [5]) was found to be 97%; in assay [2] (setting [6]), 98%; in assay [3] (setting [7]), 71%; in assay [4] (setting [8]) it was 84%.

Turning to `COc1ccc(C(C)(O)Cn2c3c(c4cc(Cl)ccc42)C2CCC(C3)N2C)cc1F` (stereo not shown) [II-164], the inhibition at 0.1 µM in assay [1] (setting [9]) stood at 40%; in assay [2] (setting [10]) it was 15%; in assay [3] (setting [11]), 12%; in assay [4] (setting [12]), 0%.

Consider `COc1ccc(/C(C)=C/n2c3c(c4cc(C)ccc42)CCN(C)CC3)c(F)c1` [compound 222], for which the inhibition at 0.1 µM in assay [1] (setting [9]) is 104%; in assay [2] (setting [10]), 96%; in assay [3] (setting [11]), 95%; in assay [4] (setting [12]) it was 101%.

The inhibition is the change of the read-out against control, counted positive when it falls. As a reminder, the Ki is the dissociation constant of the complex between target and ligand, obtained from inhibition or displacement.
